Bounds are passed on as bounds.

The values that follow come from patent US20260022122A1 (Checkmate Therapeutics Inc., priority 2022, published 2026).

The target in one experiment is NamPT (Homo sapiens (Human), UniProt P43490). Put plainly: Measurement of NamPT inhibitory ability IC50 (NamPT colorimetric assay kit, Abcam ab221819). The format is biochemical. The following applies: NamPT recombinant protein, WST-1 absorbance at 450 nm; class key in μM. How it is done: To test the effect of the compound prepared in each Example on the substrate decomposition rate (Vmax/min) mediated by NamPT enzyme, IC50 was calculated. In this experiment, the NamPT colorimetric assay kit (ab221819) produced by Abcam was used, and Graph prism software was used for IC50 calculation. PRPP, ATP, NMNAT1, NamPT recombinant proteins, and various concentrations of the compound of each Example (half-log step dilution from 100 μM) were added to nicotinamide to synthesize nicotinamide adenine dinucleotide (NAD) from the nicotinamide, and a total of 60 μL of the reaction solution was reacted at room temperature for 1 hour. WST-1 formazan converted by NAD generated by adding WST-1 was measured. The result of the reaction was obtained by the following formula by measuring absorbance using EnVision2105 (PerkinElmer) at 450 nm for 60 minutes at 2-minute intervals.
Sequence of NamPT (P43490 whole entry): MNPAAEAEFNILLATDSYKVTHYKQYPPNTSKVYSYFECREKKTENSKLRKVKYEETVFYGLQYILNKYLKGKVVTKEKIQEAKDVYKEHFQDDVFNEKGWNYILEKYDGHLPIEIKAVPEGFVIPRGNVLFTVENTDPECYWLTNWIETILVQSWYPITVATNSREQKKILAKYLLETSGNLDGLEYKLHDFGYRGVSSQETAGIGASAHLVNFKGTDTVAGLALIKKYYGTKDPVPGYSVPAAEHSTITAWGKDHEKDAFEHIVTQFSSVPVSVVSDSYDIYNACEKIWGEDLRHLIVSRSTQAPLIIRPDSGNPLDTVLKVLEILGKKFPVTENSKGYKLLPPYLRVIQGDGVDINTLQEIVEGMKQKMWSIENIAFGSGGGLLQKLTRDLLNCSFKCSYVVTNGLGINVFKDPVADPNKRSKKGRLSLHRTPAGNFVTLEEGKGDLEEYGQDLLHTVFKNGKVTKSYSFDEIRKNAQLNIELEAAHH
In Mathematical Formula 1, T1 and T2 are arbitrary times, and A1 and A2 represent the absorbance measured at T1 and T2 at 450 nm, respectively.
The results of measuring the NamPT inhibition activity of the compound of each Example obtained through the above experiment are shown in Table 1 in the unit of IC50 (nM), and the result values are expressed as follows.
In general terms: Tetrazolium assays rely on reduction of a dye to a coloured formazan, in cell work by metabolically active cells.

For experiment [1], the system named is NAPRT negative lung cancer cell lines (H322, H661, H1155). Kind of experiment: Proliferation inhibition on NAPRT negative lung cancer cell lines (CellTiter-Glo). The format is cell-based. The note with it: 72 hours. How it is done:
(§1) A compound showing a low IC50 value was selected from the compounds of the above Examples and treated an NAPRT positive or negative lung cancer cell line with various concentrations, and then the change in cell viability for each cell line was measured. The results are presented in a graph (a few materials known as NamPT inhibitors were used as controls). A total of 9 cancer cells lines (three NAPRT negative cell lines: H322, H661, and H1155; and six NAPRT positive cell lines: H1993, H2122, H2030, H1975, H1299, and HBEC30) were used. 5% fetal bovine serum (Gibco, US) and 1% penicillin/streptomycin (Gibco) were added to a medium, and the cells were cultured in a 37° C. constant temperature incubator containing 5% CO2. For compound treatment, each type of cells were seeded at 3×10^3 cells/well in a 96-well plate (Corning) and then incubated in a 37° C. constant temperature incubator containing 5% CO2 for 18 hours. […] Afterwards, the cells were cultured in an incubator containing 5% CO2 at 37° C. for 72 hours. To confirm the effect of inhibiting the proliferation of cancer cells, a CellTiter-Glo Luminescent Cell Viability Assay (Promega) was used. After treating the cells with 10 μL of CellTiter-Glo luciferase reagent and leaving them for 15 minutes at room temperature, the luminescence of each well was measured using EnVision2105 (PerkinElmer). The change in cell viability by the compound diluted at the concentration of each step was converted into a relative % value for the amount of luminescence shown by DMSO treatment. EC50 is expressed as the concentration of each compound that induces 50% of the maximum luminescence level.
(§2) The results of measuring the proliferation inhibition ability of the compound of each Example on nine types of lung cancer cell lines, obtained through the above experiment, are shown in Table 2 in the unit of EC50 (μM). The resulting values are expressed as follows.
Background: ATP-based viability assays read luminescence as a measure of living cells.

Experiment [2] deals with NAPRT positive cell lines (H1993, H2122, H2030, H1975, H1299, HBEC30). Put plainly: Proliferation inhibition on NAPRT positive lung cancer cell lines (CellTiter-Glo). It counts as cell-based. The note with it: 72 hours. How it is done: as §1, §2
Experiment [3] relates to NAPRT-negative gastric cancer cell line HGC27. Kind of experiment: NAPRT-negative cancer cell xenograft model (% tumor growth inhibition). The format is in vivo. The note with it: 50 mg/kg, orally once a day from day 1 to day 21, HGC27 xenograft in BALB/c nude mice. The text has this:
Based on the effect of inhibiting proliferation limited to NAPRT-negative cancer cell lines according to the experiment of the proliferation inhibitory effect (EC50) on NAPRT-negative cancer cell lines, the pharmacological effect in a xenograft model using NAPRT-negative cancer cell lines was verified. Five-week-old female BALB/c nude mice were purchased and used in the experiment after acclimation for one week. The cancer cells used in the experiment were a NAPRT-negative gastric cancer cell line HGC27, and cultured in […] medium (Gibco) to which 5% Fetal Bovine Serum (Gibco, US) and 1% penicillin/streptomycin (Gibco) were added. HGC27 was suspended in PBS (Welgene) and transplanted to have 5×10^6 cells into each mouse. After adding Matrigel in the same value, tumors were induced by subcutaneous injection into the right flank using a 1 mL syringe. After 3 weeks of breeding, when the average tumor size was 100 to 150 mm^3, mice were randomly divided into groups of 7 and administered each compound. The compound was prepared in an excipient (0.5% DMSO/2% Tween 80/20% PEG 400/20% b-HPCD in 77.5% DW) as an agent for oral administration, and administered orally once a day from day 1 to day 21 to the mouse model in which a tumor was generated. From day 1 to day 21, the body weight was measured once daily, and the tumor size was measured three times a week. The tumor size was measured using a caliper and calculated using the following formula.
In Mathematical Formula 2, W is a length, and d is a width.
On day 21, all animals were euthanized, blood samples were collected, and tumors were removed. To evaluate blood toxicity, blood was collected from an EDTA-containing blood collection tube, and subjected to a general blood test (complete blood count, CBC) and a blood biochemical test. Isolated tumors were weighed after photographing and a portion was used to measure NAD to verify the on-target efficacy of the compound. To measure NAD, a NAD/NADH Quantitation Colorimetric Kit (K337) produced by BioVision was used.
The pharmacological effect of each compound in the NAPRT-negative cancer cell xenograft models, obtained in this experiment, is shown in Table 3 in the unit of % TGI (tumor growth inhibition).

On to `O=C(NCc1ccc(-c2nc3ccc(Cl)cc3o2)cc1)c1cnc2nccn2c1` [Example 4, N-[[4-(6-chloro-1,3-benzoxazol-2-yl)phenyl]methyl]imidazo[1,2-a]pyrimidin-6-carboxamide], for which, at NamPT, the IC50 (usually the midpoint of a concentration-inhibition curve) was less than 0.05 µM. The values for the EC50 in experiment [1] and in experiment [2] were less than 0.05 µM and more than 101 µM, respectively. Further, the “% TGI (Tumor Growth inhibition)” value in experiment [3] is on record as 80%.
Consider `Cc1cc2nc(-c3ccc(CNC(=O)c4cnc5nccn5c4)cc3)oc2cc1Cl` [Example 10, N-[[4-(6-chloro-5-methyl-1,3-benzoxazol-2-yl)phenyl]methyl]imidazo[1,2-a]pyrimidin-6-carboxamide], for which, on NamPT, the IC50 was less than 0.05 µM. Further, the EC50 – broadly, the midpoint of the concentration-response curve – in experiment [1] is less than 0.05 µM; in experiment [2], more than 101 µM. The “% TGI (Tumor Growth inhibition)” value in experiment [3] is 61%.
In the case of `Cc1cc2nc(-c3ccc(CNC(=O)c4cnc5nccn5c4)cc3)oc2cc1F` [Example 11, N-[[4-(6-fluoro-5-methyl-1,3-benzoxazol-2-yl)phenyl]methyl]imidazo[1,2-a]pyrimidin-6-carboxamide], at NamPT, the IC50 is less than 0.05 µM. Also, the “% TGI (Tumor Growth inhibition)” value in experiment [3] is reported as 82%.
Consider `O=C(NCc1ccc(-c2nc3cc(C(F)(F)F)ccc3o2)cc1)c1cnc2nccn2c1` [Example 13, N-[[4-[5-(trifluoromethyl)-1,3-benzoxazol-2-yl]phenyl]methyl]imidazo[1,2-a]pyrimidin-6-carboxamide], for which, at NamPT, the IC50 was less than 0.05 µM. In addition, the EC50 in experiment [1] was less than 0.05 µM; in experiment [2], more than 101 µM. In addition, in experiment [3], the “% TGI (Tumor Growth inhibition)” value is recorded as 63%.
